Results taken from PubChem BioAssay AID248 (DTP/NCI, 2004).
Several values for one entry are separate records, joined by “and”; a condition that tells them apart may be missing. Equal values may be shown once. Inconclusive results and toxic doses are left out. No stated cut-off is given here; in the data, active means T/C of 150% or more; inactive means T/C below 125%.

Test system: L1210 leukemia ip in BDF1 mice, survival T/C
Assay: NCI In Vivo Anticancer Drug Screen. Data for tumor model L1210 Leukemia (intraperitoneal) in B6D2F1 (BDF1) mice
Conditions: endpoint: mean survival time, higher = longer survival
Procedure, shortened: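 Tumor cells were implanted, animals were treated, and survival was followed. The result divides the treated measurement by the vehicle-control measurement.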

[1] = dose: 100.0 mg/kg/injection, schedule: Q04DX003 (ip), vehicle: Klucel (hydroxypropylcellulose) (HPC)
[2] = dose: 200.0 mg/kg/injection, schedule: Q04DX003 (ip), vehicle: Klucel (hydroxypropylcellulose) (HPC)
[3] = dose: 400.0 mg/kg/injection, schedule: Q04DX003 (ip), vehicle: Klucel (hydroxypropylcellulose) (HPC)
[4] = dose: 100.0 mg/kg/injection, schedule: Q01DX001 (ip), vehicle: carboxymethylcellulose (CMC)
[5] = dose: 200.0 mg/kg/injection, schedule: Q01DX001 (ip), vehicle: carboxymethylcellulose (CMC)
[6] = dose: 400.0 mg/kg/injection, schedule: Q01DX001 (ip), vehicle: carboxymethylcellulose (CMC)

Measured: T/C

CC1(c2ccco2)CCC(=O)CC1=O (centres undefined)
inactive: [1] 101 % of control | [2] 98 % of control | [3] 98 % of control

O=C(CSc1cc(Cl)ccc1Cl)Nc1cccc(Br)c1
inactive: dose: 50.0 mg/kg/injection, schedule: Q04DX003 (ip), vehicle: other 86 % of control | dose: 100.0 mg/kg/injection, schedule: Q04DX003 (ip), vehicle: other 90 % of control and 92 % of control | dose: 200.0 mg/kg/injection, schedule: Q04DX003 (ip), vehicle: other 89 % of control | dose: 400.0 mg/kg/injection, schedule: Q04DX003 (ip), vehicle: other 87 % of control

O=C1c2ccccc2C(c2ccccc2)C1c1ccccc1 (centres undefined)
inactive: dose: 50.0 mg/kg/injection, schedule: Q04DX002 (ip), vehicle: Klucel (hydroxypropylcellulose) (HPC) 108 % of control | dose: 100.0 mg/kg/injection, schedule: Q04DX002 (ip), vehicle: Klucel (hydroxypropylcellulose) (HPC) 94 % of control | dose: 200.0 mg/kg/injection, schedule: Q04DX002 (ip), vehicle: Klucel (hydroxypropylcellulose) (HPC) 94 % of control

CCc1c(O)nc2ccccn2c1=O
inactive: [4] 98 % of control | [5] 109 % of control | [6] 113 % of control

O=[N+]([O-])c1cccc(OCCBr)c1
inactive: dose: 100.0 mg/kg/injection, schedule: Q01DX001 (ip), vehicle: saline 101 % of control | dose: 200.0 mg/kg/injection, schedule: Q01DX001 (ip), vehicle: saline 107 % of control | dose: 400.0 mg/kg/injection, schedule: Q01DX001 (ip), vehicle: saline 103 % of control

O=S(=O)(O)/[N+]([O-])=N/O
inactive: dose: 100.0 mg/kg/injection, schedule: Q04DX003 (ip), vehicle: saline sonified 94 % of control | dose: 200.0 mg/kg/injection, schedule: Q04DX003 (ip), vehicle: saline sonified 100 % of control | dose: 400.0 mg/kg/injection, schedule: Q04DX003 (ip), vehicle: saline sonified 95 % of control

CC1(C)C2CCC1(C)C(N1C(c3ccccc3)C1c1ccccc1)C2 (centres undefined)
inactive: dose: 100.0 mg/kg/injection, schedule: Q01DX009 (ip), vehicle: Klucel (hydroxypropylcellulose) (HPC) 90 % of control | dose: 200.0 mg/kg/injection, schedule: Q01DX009 (ip), vehicle: Klucel (hydroxypropylcellulose) (HPC) 88 % of control | dose: 400.0 mg/kg/injection, schedule: Q01DX009 (ip), vehicle: Klucel (hydroxypropylcellulose) (HPC) 90 % of control

COc1cccc(NC(=O)NCCCl)c1OC
inactive: [1] 107 % of control | [2] 96 % of control | [3] 102 % of control

Nc1ccc(SCc2nc3cccc4c3n2CCC4)cc1
inactive: dose: 100.0 mg/kg/injection, schedule: Q01DX009 (ip), vehicle: saline with Tween-80 88 % of control | dose: 100.0 mg/kg/injection, schedule: Q04DX003 (ip), vehicle: saline with Tween-80 96 % of control | dose: 200.0 mg/kg/injection, schedule: Q01DX009 (ip), vehicle: saline with Tween-80 96 % of control | dose: 200.0 mg/kg/injection, schedule: Q04DX003 (ip), vehicle: saline with Tween-80 94 % of control | dose: 400.0 mg/kg/injection, schedule: Q01DX009 (ip), vehicle: saline with Tween-80 105 % of control | dose: 400.0 mg/kg/injection, schedule: Q04DX003 (ip), vehicle: saline with Tween-80 92 % of control

CN(Cc1cnc2nc(N)c(Br)c(N)c2n1)c1ccc(C(=O)NC(CCC(=O)O)C(=O)O)cc1 (centres undefined)
inactive: dose: 100.0 mg/kg/injection, schedule: Q04DX002 (ip), vehicle: sodium bicarbonate 96 % of control | dose: 200.0 mg/kg/injection, schedule: Q04DX002 (ip), vehicle: sodium bicarbonate 96 % of control

CCCCN(CCCC)S(=O)(=O)CCC
inactive: dose: 50.0 mg/kg/injection, schedule: Q04DX002 (ip), vehicle: saline with Tween-80 101 % of control | dose: 100.0 mg/kg/injection, schedule: Q04DX002 (ip), vehicle: saline with Tween-80 97 % of control | dose: 200.0 mg/kg/injection, schedule: Q04DX002 (ip), vehicle: saline with Tween-80 97 % of control

COc1cc(O)c([N+](=O)[O-])cc1[N+](=O)[O-]
inactive: [4] 96 % of control | [5] 91 % of control | [6] 100 % of control
